Data on 7 compounds can be found in patent US8183201B2 (priority 2006, dated 2012).

Read-outs that look alike come from different tables or passages of the source.

The subject of series [1] is ovariectomized (OVX) rats. The settings on record: rat, in vivo, po, 1.5 mg/kg.
Series [2] has as its system osteoclast precursors (bone marrow hematopoietic cells). It counts as cell-based, SD rats. The following applies: read-out: IC50 Osteoclastogenesis.
Series [3] concerns ovariectomized (OVX) mice. Also noted: species or system ICR mice. The settings on record: mouse, in vivo, po, 1.5 mg/kg.
The target in a further series is platelet aggregation (Homo sapiens, UniProt P05106+P08514). Format: cell-based.
Another series has as its target T1, integrin αIIbβ3 (Homo sapiens, UniProt P05106+P08514).
T1 construct: host or cells: CHO (CHO-αIIbβ3)
Format: cell-based.

The next series concerns the target T2, integrin α5β1 (Homo sapiens, UniProt P05556+P08648).
T2 construct: Human erythroleukemia K562 cells were purchased from ATCC; host or cells: K562
It counts as cell-based.

In the next series the target is integrin αvβ3 (UniProt P05106+P06756). It counts as cell-based.
The conditions of series [4]: mouse, in vivo.

T2 sequence (P08648 42-894 limits assumed): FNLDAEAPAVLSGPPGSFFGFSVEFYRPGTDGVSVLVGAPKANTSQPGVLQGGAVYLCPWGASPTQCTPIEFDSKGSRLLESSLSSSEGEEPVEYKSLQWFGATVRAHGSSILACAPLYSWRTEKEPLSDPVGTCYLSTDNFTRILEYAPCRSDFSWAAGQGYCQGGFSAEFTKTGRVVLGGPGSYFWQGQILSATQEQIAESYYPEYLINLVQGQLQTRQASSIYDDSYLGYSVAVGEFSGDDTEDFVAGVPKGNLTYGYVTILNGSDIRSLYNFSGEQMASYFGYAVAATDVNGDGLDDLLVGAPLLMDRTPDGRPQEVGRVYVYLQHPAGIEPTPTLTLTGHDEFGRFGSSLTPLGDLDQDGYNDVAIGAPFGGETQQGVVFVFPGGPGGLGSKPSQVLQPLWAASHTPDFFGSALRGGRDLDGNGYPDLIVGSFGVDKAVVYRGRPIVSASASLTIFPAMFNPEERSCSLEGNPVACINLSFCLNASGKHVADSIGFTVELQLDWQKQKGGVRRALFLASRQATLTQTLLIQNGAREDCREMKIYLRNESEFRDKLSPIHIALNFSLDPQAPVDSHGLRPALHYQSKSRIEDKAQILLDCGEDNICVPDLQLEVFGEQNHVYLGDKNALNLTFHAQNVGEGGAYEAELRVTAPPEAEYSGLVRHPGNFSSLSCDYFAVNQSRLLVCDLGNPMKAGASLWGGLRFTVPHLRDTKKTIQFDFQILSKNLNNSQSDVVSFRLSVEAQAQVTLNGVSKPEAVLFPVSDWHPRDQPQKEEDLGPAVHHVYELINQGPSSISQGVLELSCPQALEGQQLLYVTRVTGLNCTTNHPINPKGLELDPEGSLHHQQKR
T2 sequence (P08648 895-1049 partner limits assumed): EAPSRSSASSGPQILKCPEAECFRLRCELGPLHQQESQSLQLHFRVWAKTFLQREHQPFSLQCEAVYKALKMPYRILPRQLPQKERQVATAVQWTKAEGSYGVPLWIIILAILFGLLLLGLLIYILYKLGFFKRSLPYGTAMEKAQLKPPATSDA
T2 sequence (P05556 21-798): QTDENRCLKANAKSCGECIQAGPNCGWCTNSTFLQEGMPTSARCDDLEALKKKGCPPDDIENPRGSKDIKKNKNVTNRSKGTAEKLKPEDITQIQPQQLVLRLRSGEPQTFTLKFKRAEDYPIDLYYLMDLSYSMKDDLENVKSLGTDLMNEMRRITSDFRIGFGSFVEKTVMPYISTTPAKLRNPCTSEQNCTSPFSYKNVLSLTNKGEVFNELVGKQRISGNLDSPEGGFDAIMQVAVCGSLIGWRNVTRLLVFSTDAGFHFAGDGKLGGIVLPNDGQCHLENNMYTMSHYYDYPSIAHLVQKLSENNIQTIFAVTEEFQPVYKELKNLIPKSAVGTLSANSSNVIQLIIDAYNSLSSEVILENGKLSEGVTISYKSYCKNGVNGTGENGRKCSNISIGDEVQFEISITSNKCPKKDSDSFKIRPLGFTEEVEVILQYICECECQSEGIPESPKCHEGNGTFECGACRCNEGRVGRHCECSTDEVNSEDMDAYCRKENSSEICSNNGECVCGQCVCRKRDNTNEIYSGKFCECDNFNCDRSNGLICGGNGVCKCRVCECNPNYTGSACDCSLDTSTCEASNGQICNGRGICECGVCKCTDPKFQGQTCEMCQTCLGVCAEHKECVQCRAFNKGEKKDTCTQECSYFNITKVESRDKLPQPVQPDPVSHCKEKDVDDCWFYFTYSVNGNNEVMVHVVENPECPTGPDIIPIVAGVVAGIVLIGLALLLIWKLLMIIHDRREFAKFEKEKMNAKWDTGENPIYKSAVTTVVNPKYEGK
Sequence of integrin αvβ3 (P06756 31-1048): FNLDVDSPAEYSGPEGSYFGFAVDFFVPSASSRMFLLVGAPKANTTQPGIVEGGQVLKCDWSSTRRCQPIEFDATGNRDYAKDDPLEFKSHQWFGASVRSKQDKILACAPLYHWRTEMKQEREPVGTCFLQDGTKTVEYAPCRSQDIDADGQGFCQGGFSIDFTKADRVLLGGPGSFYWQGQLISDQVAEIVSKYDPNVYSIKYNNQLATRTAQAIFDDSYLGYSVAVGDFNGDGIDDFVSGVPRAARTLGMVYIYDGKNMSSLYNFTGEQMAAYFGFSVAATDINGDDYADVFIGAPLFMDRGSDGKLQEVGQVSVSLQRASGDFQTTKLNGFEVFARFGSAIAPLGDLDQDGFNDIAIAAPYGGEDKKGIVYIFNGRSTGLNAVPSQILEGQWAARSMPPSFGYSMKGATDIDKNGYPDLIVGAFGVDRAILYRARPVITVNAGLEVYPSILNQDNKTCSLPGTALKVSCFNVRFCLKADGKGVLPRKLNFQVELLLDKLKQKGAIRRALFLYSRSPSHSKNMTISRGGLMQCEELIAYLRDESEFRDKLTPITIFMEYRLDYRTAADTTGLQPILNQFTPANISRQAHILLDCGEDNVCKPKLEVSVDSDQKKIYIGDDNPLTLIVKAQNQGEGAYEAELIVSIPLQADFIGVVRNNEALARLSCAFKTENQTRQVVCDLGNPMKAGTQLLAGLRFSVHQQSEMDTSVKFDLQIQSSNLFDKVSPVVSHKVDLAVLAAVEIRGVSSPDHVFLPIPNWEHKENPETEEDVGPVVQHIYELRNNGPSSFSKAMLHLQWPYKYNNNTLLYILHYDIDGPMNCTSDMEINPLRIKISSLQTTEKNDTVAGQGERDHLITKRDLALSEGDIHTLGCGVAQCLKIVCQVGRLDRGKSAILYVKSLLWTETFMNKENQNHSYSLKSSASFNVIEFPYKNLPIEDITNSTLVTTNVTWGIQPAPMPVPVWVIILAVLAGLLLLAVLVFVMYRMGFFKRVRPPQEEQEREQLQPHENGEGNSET
Sequence of integrin αvβ3 (P05106 27-788): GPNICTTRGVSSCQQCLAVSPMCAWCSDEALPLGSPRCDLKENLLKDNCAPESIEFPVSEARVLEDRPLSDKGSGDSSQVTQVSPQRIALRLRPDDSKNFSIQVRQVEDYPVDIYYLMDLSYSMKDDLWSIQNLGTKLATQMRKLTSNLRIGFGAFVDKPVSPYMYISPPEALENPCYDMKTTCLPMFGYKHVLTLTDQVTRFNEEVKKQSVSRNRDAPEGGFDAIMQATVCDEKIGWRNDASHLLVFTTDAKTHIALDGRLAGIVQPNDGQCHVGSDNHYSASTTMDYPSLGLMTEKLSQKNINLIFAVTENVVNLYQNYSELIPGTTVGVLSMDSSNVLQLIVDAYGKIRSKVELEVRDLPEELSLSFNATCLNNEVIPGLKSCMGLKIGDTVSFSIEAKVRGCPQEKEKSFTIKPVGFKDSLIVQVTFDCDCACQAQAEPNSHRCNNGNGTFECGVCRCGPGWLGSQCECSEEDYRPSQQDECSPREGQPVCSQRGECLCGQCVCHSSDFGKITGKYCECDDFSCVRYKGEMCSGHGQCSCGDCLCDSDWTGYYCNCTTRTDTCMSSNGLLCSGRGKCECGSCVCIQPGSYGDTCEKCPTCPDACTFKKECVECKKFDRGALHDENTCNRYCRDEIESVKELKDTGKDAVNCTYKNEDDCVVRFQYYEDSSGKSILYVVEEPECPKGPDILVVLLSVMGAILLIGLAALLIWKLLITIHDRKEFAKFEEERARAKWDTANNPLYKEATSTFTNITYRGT

`NCCCC(O)(P(=O)(O)O)P(=O)(O)O` [Alendronate, alendronate, reference compound]: the “ovariectomy-induced increase in osteoclast activity (serum C-terminal telopeptide of type-I collagen)” value in series [1] was “reversed the ovariectomy-induced increase in osteoclast activity”.

Regarding “ARGDDL: rhodostomin variant with RGD motif ^48Ala-Arg-Gly-Asp-Asp-Leu^53, SEQ ID NO: 32”, the IC50 in series [2] was 8.02 nM. Moreover, in series [3], the BMC was found to be 0.624 ± 0.007 g, the BMD is 0.093 ± 0.001 g/cm^2 and the “C-terminal telopeptide of COL(1)α1 chain” value was 389 ± 16.4 ng/mL.

With “PGP: rhodostomin variant having a RGD motif variant ^48PRGDGP^53, SEQ ID NO: 42”, the IC50 with platelet aggregation was found to be 283 nM; with integrin αIIbβ3 (read-out: IC50 αIIbβ3) it was 500 nM; with integrin αIIbβ3 (read-out: IC50 αllbβ3/Fg) it was 2590 nM; in the series with integrin α5β1 (read-out: IC50 α5β1), 4 µM; with integrin α5β1 (read-out: IC50 α5β1/Fn), 3.46 µM.

On to “PRGDDL: rhodostomin variant with RGD motif ^48Pro-Arg-Gly-Asp-Asp-Leu^53, SEQ ID NO: 33”, for which the IC50 in series [2] worked out at 3.15 nM.

On to “PRLDDL: rhodostomin variant with RGD motif ^48Pro-Arg-Leu-Asp-Asp-Leu^53, SEQ ID NO: 37”, for which, in series [3], the BMC was 0.563 ± 0.056 g, the BMD was 0.091 ± 0.002 g/cm^2 and the “C-terminal telopeptide of COL(1)α1 chain” value turned out to be 410 ± 25.1 ng/mL.

With “RID: rhodostomin variant with RGD motif ^48Pro-Arg-Ile-Asp-Met-Pro^53, SEQ ID NO: 39”, the IC50 in series [2] came to 5.82 nM. Besides, in series [3], the BMC is reported as 0.622 ± 0.004 g, the BMD was determined as 0.091 ± 0.001 g/cm^2 and the “C-terminal telopeptide of COL(1)α1 chain” value was found to be 391 ± 12 ng/mL.

Consider rhodostomin [reference compound], for which the IC50 on platelet aggregation was 83 nM; at integrin αIIbβ3 (read-out: IC50 αIIbβ3), 21 nM; on integrin αIIbβ3 (read-out: IC50 αllbβ3/Fg), 21 nM; on integrin αvβ3 (read-out: IC50 αvβ3), 13 nM; at integrin αvβ3 (read-out: IC50 αvβ3/Fg), 13 nM; in series [2] it was 5.52 nM. Moreover, the BMC in series [3] worked out at 0.619 ± 0.006 g. The BMD in series [3] worked out at 0.090 ± 0.001 g/cm^2. Besides, the “C-terminal telopeptide of COL(1)α1 chain” value in series [3] was 397 ± 13.6 ng/mL. Also, in series [4], the “effect on tail bleeding (clotting) time” value is on record as “pronounced effect in prolonging the clotting time”.
